Reference: US11691974B2, “3,9-diazaspiro[5,5]undecane compound as FLT3 and AXL inhibitors” (MEDSHINE DISCOVERY INC., priority 2018, dated 2023)

Columns and labels:
[1] = system: human biphenotypic B bone marrow mononuclear leukemia cell MV4-11 subcutaneous xenograft tumor; experiment: Inhibition of MV4-11 subcutaneous xenograft tumor in vivo; set-up: species or system nude mice; details: for Average tumor volume Day 25 / Average tumor volume Day 35: then drug withdrawal; for Average tumor volume Day 0: baseline at start of dosing
Experimental: In this assay, the anti-tumor effect of the compounds was evaluated using a nude mice model of subcutaneous xenograft tumor of human biphenotypic B bone marrow mononuclear leukemia cell MV4-11.
Human biphenotypic B bone marrow mononuclear leukemia cell MV4-11 was cultured in vitro in suspension with a RPMI1640 medium supplemented with 10% fetal bovine serum, 100 U/mL penicillin and 100 μg/mL streptomycin in a 5% CO2 cell incubator at 37° C. Routine passaging was performed twice a week. Cells in the logarithmic growth phase were collected, counted and then used for inoculation.
10×10^6 MV4-11 cells were inoculated subcutaneously on the back of the right neck of each mouse, wherein the inoculation volume was 0.2 mL, and the cell suspension was PBS plus matrigel (volume ratio 1:1). The assay of efficacy in vivo was performed on the 13th day after the cell inoculation, at which time the average tumor volume reached 181 mm^3. The mice were randomly divided into groups with 6 mice in each group, and administration to the mice started.
The diameter of the tumor was measured with vernier calipers twice a week. The formula for calculating the tumor volume is: V=0.5a×b^2, where a and b represent the long and short diameters of the tumor, respectively.
After 14 days of administration, the administration was stopped, and the rebound of the tumor was observed.

[2] = system: MV-4-11 cells; experiment: Assay of inhibiting proliferation of MV-4-11 in vitro (CellTiter-Glo); type: cell-based; details: Homo sapiens, MV4-11, 72 h, 3 days
Experimental: IMDM medium, fetal bovine serum, and penicillin/streptomycin antibiotics were purchased from Promega (Madison, Wis.). The MV-4-11 cell line was purchased from the Cell Bank of the Chinese Academy of Sciences. Envision Multi-Label Analyzer (PerkinElmer).
MV-4-11 cells were seeded in a white 96-well plate with 80 μL of cell suspension per well containing 10,000 MV-4-11 cells. The cell plate was cultured overnight in a carbon dioxide incubator.
The compounds to be tested were 5-fold serially diluted with a pipette to obtain eight concentrations, i.e., from 2 mmol/L to 26 nmol/L. The assay was carried out in duplicate. 78 μL of medium was added to the intermediate plate, and then 2 μL per well of the serially diluted compounds were transferred to the intermediate plate according to the corresponding position. After mixing, an amount of 20 μL per well was transferred to the cell plate. The cell plate was cultured in a carbon dioxide incubator for 3 days.
25 μL per well of Promega CellTiter-Glo reagent was added to the cell plate and incubated at room temperature for 10 minutes to stabilize the luminescence signal. A PerkinElmer Envision multi-label analyzer was used for reading.
The original data was converted into an inhibition rate, and the IC50 value can be obtained by four-parameter curve fitting.

[3] = system: human acute myeloma MOLM-13 cell line subcutaneous xenograft; experiment: Inhibition of Molm-13 subcutaneous xenograft tumor in vivo; set-up: species or system NOD/SCID female mice; details: for Average tumor volume Day 0: baseline
Experimental: The purpose of this assay is to evaluate the pharmacodynamics of the compounds in the NOD/SCID female mice model of human acute myeloma MOLM-13 cell line subcutaneous xenograft.
MOLM-13 cells were cultured in RPMI-1640 medium containing 10% fetal bovine serum. The MOLM-13 cells were collected in the exponential growth phase, and resuspended in PBS to a suitable concentration for subcutaneous tumor inoculation in nude mice.
The assay mice were inoculated with 5×10^6 MOLM-13 cells resuspended in 0.1 ml of PBS (0.1 ml per mouse) subcutaneously on the right back. Tumor growth was regularly observed. When the tumor grew to an average volume of 98 mm^3, the mice were randomly divided into groups and administered according to tumor size and body weight of the mice.
After the start of administration, the body weight and tumor size of the mice were measured three times a week. The formula for calculating the tumor volume is: tumor volume (mm^3)=½×(a×b^2) (where a represents the long diameter and b represents the short diameter).

[4] = 20 mg/kg oral once a day for 14 days
[5] = 5 mg/kg oral once a day for 14 days

Question: How did the “% Inhibition rate on day 14” value ([1]; 20 mg/kg oral once a day) turn out when `CCc1nc(C(N)=O)c(Nc2ccc(N3CCC4(CCN(C)CC4)CC3)c(OC)c2)nc1NC1CCOCC1` [Compound A] was run?
Answer: 118%

Question: And the “Average tumor volume Day 14” value ([1]; 20 mg/kg oral once a day)?
Answer: 39 cubic millimeter

Question: And the “Average tumor volume Day 25” value [1, 4]?
Answer: 258 cubic millimeter

Question: And the “Average tumor volume Day 35” value [1, 4]?
Answer: 988 cubic millimeter

Question: And the “Average tumor volume Day 0” value ([1]; 20 mg/kg oral once a day group)?
Answer: 181 cubic millimeter

Question: What about the IC50 [2] of the same compound?
Answer: 5.4 nM

Question: Which results are given for `CCc1nc(C(N)=O)c(Nc2ccc(N3CCC(N4CCN(C)CC4)CC3)c(OC)c2)nc1NC1CCOCC1` [Compound B]?
Answer: % Inhibition rate on day 14 ([1]; 5 mg/kg oral once a day): 118%; Average tumor volume Day 14 ([1]; 5 mg/kg oral once a day): 41 cubic millimeter; Average tumor volume Day 25 [1, 5]: 320 cubic millimeter; Average tumor volume Day 35 [1, 5]: 1279 cubic millimeter; Average tumor volume Day 0 ([1]; 5 mg/kg oral once a day group): 181 cubic millimeter; IC50 [2]: 4.65 nM

Question: For `CCc1nc(C(N)=O)c(Nc2ccc(N3CCC4(CCN(C)CC4)CC3)c(C)c2)nc1NC1CCOCC1` [Compound of formula (I)], which “Average tumor volume Day 11” value ([3]; 15 mg/kg oral once a day) is on record?
Answer: 156.85 cubic millimeter

Question: And the “Average tumor volume Day 15” value ([3]; 15 mg/kg oral once a day)?
Answer: 223.09 cubic millimeter

Question: What about the “Average tumor volume Day 11” value ([3]; 50 mg/kg oral once a day) of the same compound?
Answer: 53.08 cubic millimeter

Question: What about the “Average tumor volume Day 15” value ([3]; 50 mg/kg oral once a day) of the same compound?
Answer: 0 cubic millimeter

Question: And the “Average tumor volume Day 0” value ([3]; 15 mg/kg oral once a day group)?
Answer: 98.34 cubic millimeter

Question: And the “Average tumor volume Day 0” value ([3]; 50 mg/kg oral once a day group)?
Answer: 98.05 cubic millimeter
